This test addresses T1, human recombinant progesterone receptor-B (PRB) (Homo sapiens, UniProt P06401).
T1 construct: purchased Invitrogen (Carlsbad, Calif.)
T1 sequence (P06401 1-933): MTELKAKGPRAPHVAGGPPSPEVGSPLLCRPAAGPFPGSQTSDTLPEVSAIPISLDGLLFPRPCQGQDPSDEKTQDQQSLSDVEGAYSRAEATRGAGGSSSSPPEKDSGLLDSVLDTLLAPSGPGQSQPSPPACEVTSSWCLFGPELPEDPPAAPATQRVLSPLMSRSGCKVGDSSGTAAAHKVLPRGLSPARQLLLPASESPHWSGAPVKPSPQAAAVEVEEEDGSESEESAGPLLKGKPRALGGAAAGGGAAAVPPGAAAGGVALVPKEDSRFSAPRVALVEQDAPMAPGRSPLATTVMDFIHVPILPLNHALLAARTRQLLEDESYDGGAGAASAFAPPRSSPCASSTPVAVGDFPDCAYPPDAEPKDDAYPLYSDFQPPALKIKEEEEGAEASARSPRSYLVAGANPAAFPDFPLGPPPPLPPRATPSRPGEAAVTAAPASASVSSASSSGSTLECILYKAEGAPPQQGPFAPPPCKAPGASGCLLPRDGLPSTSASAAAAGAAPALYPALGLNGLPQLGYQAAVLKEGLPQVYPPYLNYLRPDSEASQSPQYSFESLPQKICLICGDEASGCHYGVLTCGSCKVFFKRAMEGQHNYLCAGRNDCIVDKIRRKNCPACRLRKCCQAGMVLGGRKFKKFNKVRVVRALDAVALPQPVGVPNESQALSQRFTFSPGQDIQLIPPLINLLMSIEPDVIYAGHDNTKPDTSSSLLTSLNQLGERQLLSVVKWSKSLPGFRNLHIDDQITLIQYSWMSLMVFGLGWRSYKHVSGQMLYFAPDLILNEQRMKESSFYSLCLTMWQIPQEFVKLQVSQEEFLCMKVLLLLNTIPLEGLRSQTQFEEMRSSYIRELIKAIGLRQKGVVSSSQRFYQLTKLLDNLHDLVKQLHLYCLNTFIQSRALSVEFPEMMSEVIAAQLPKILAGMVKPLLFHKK
Put plainly: Radioactive ligand binding test, PRB cytosol, [3H]-Prog. The source says: Radioactive Ligand Binding Test Using Cytosols of Human Glucocorticoids Receptor, Progesterone Receptor and Mineralocorticoid Receptor
The procedures described in Neuroimmunomodulation (1994, 1, p. 66-73) and Invest. Opthalmol. Vis. Sci. (1996, 37, p. 805-813) were modified and used. In brief, cytosol preparations of human recombinant glucocorticoids receptor (GR) and human recombinant progesterone receptor-B (PRB) were purchased from Invitrogen (Carlsbad, Calif.), and a cytosol preparation of human recombinant mineralocorticoid receptor (MR) was prepared by our company (Yokohama, JP). MR cDNA was cloned into a baculovirus expression vector and expressed in insect cell Sf9. The procedures described in J. Biol. Chem. (1991, 266, p. 18072-18081), Proc. Natl. Acad. Sci. USA (1991, 88, p. 10681-10685) and Bac-to-Bac (registered trade mark) Baculovirus Expression Systems technical manual (Invitrogen) were partly modified and used as the procedures for MR gene cloning up to preparation of recombinant receptor cytosol. [^3H]-Dexamethasone (Dex, specific activity 91.0 Ci/mmol) was purchased from GE Healthcare (Buckinghamshire, UK), and [^3H]-progesterone (Prog, specific activity 103 Ci/mmol) and [3H]-aldosterone (Ald, specific activity 87.9 Ci/mmol) were each purchased from PerkinElmer (Boston, Mass.). Polypropylene round-bottomed 96 well plate was obtained from ABgene (Epsom, UK). Dimethyl Sulfoxide (DMSO) and hydrochloric acid were obtained from Kanto Chemical (TOKYO, JP). Trizma Base (Tris), Bovine Serum Albumin (BSA) and Sodium tungstate dihydrate were obtained from Sigma Chemicals (St. Louis, Mo.). Dithiothreitol (DTT) and Dextran 70 were obtained from GE Healthcare (Buckinghamshire, UK). Glycerol was obtained from Junsei Chemical (TOKYO, JP). Norit® “SX-II” was obtained from Wako Pure Chemical Industries, Ltd. (Osaka, JP). MeltiLex™, A, Printed Filtermat A and Sample Bag were obtained from PerkinElmer (Boston, Mass.).
As a buffer for GR binding assay, 25 mM Tris-HCl (4° C., pH 7.4)/1 mM EDTA·2Na/1 mM DTT/0.1% BSA was prepared and used. As buffers for PRB and MR binding assay, 10 mM Tris-HCl (4° C., pH 7.4)/1 mM DTT/0.1% BSA/10% glycerol and 20 mM Tris-HCl (4° C., pH 7.4)/1 mM EDTA·2Na/10% glycerol/20 mM sodium tungstate were respectively prepared and used. As dextran-coated charcoal (DCC) for B/F separation, 0.75% Dextran 70/0.75% Norit® SX-II/10 mM Tris-HCl (4° C., pH 7.4) was prepared and used.
Compound storage solutions (5-20 mM) were prepared using DMSO. The storage solutions were diluted with DMSO to 0.1 mM (for GR) and 0.3 mM (for PRB and MR), and further diluted 20-fold with distilled water to give solutions. Then, the preparations were diluted to each concentration with 5% DMSO solution. 1% DMSO was present at the time of the binding assay.
In the case of PRB binding assay, [^3H]-Prog (about 5 nM), PRB cytosol (concentration of function receptor: about 4 pmol/mL), a test compound and a binding buffer were mixed in a total volume of 50 μL, and the mixture was stood at 4° C. for 30 min or longer. A specific binding was defined to be the difference in the [^3H]-Prog binding between the presence and the absence of 1 μM unlabeled Prog.
After the reaction, 50 μL of DCC was added to each well and blended. Thereafter, the mixture was stood at 4° C. for 10 min. The plate was applied to high-speed cooling centrifuge under the conditions of 4° C., 2000 rpm, 5 min to perform B/F separation. A given amount of the supernatant was recovered, which was spotted on Filtermat A of 96 well format (PerkinElmer) and rapidly dried at a high temperature. Then, solid scintillator MeltiLex A (PerkinElmer) was melted on Filtermat A. The mixture was placed in a Sample Bag (PerkinElmer), and the level of radioactivity was measured by plate reader 1450 Micro Beta TRILUX (PerkinElmer).
Measurement of Inhibition Constant (Ki)

[1] abbreviates: [3H]-Prog about 5 nM, PRB cytosol, 4° C., Cheng-Prusoff, Kd about 3.5 nM, read-out: PR (Ki: nM).

Read-outs that look alike come from different tables or passages of the source. Where only a bound is given, the exact number is not on record here.

Take `Cc1noc(C)c1-c1cc2c(c3c1CCC3)NC(C)(C)C(=O)C2(C)C` [Example 2, 6-(3,5-dimethylisoxazol-4-yl)-2,2,4,4-tetramethyl-2,3,4,7,8,9-hexahydro-1H-cyclopenta[h]quinolin-3-one]: under setting [1], the inhibition constant (Ki) (in general, the dissociation constant of the complex between target and ligand, obtained from inhibition or displacement) is over 1250 nM.
For the compound `Cc1nnn(C)c1-c1cc2c(c3c1CCC3)NC(C)(C)C(=O)C2(C)C` [Example 4, 6-(3,5-dimethyl-3H-[1,2,3]triazol-4-yl)-2,2,4,4-tetramethyl-2,3,4,7,8,9-hexahydro-1H-cyclopenta[h]quinolin-3-one], the inhibitory constant (Ki) under setting [1] was over 1250 nM.
On the same count and under the same terms, in the case of `CC1(C)Nc2c(cc(-c3ccnc4cc[nH]c34)c3c2CCC3)C(C)(C)C1=O` [Example 13, 2,2,4,4-tetramethyl-6-(1H-pyrrolo[3,2-b]pyridin-7-yl)-2,3,4,7,8,9-hexahydro-1H-cyclopenta[h]quinolin-3-one] it was over 1250 nM; in that of `CC1(C)Nc2c(cc(-c3cccc4nccn34)c3c2CCC3)C(C)(C)C1=O` [Example 14, 6-(imidazo[1,2-a]pyridin-5-yl)-2,2,4,4-tetramethyl-2,3,4,7,8,9-hexahydro-1H-cyclopenta[h]quinolin-3-one], over 1250 nM.
Regarding `CC1(C)Nc2c(cc(-c3cccc4nncn34)c3c2CCC3)C(C)(C)C1=O` [Example 17, 2,2,4,4-tetramethyl-6-([1,2,4]triazolo[4,3-a]pyridin-5-yl)-2,3,4,7,8,9-hexahydro-1H-cyclopenta[h]quinolin-3-one], the Ki is over 1250 nM.
On to `CC1(C)Nc2c(cc(-c3cccc4ncccc34)c3c2CCC3)C(C)(C)C1=O` [Example 20, 2,2,4,4-tetramethyl-6-(quinolin-5-yl)-2,3,4,7,8,9-hexahydro-1H-cyclopenta[h]quinolin-3-one], for which the inhibitory constant (Ki) under setting [1] is over 1250 nM.
Regarding `CC1(C)Nc2c(cc(-c3ccnc4ncccc34)c3c2CCC3)C(C)(C)C1=O` [Example 21, 2,2,4,4-tetramethyl-6-([1,8]naphthyridin-4-yl)-2,3,4,7,8,9-hexahydro-1H-cyclopenta[h]quinolin-3-one], under setting [1], the inhibition constant Ki was over 1250 nM.
As to `C=C1C(C)(C)Nc2c(cc(-c3c(C)ncn3C)c3c2CCC3)C1(C)C` [Example 29, 6-(3,5-dimethyl-3H-imidazol-4-yl)-2,2,4,4-tetramethyl-3-methylene-2,3,4,7,8,9-hexahydro-1H-cyclopenta[h]quinoline], the Ki under setting [1] was over 1250 nM.
For the compound `C=CCC1(C)C(=O)C(C)(C)Nc2c1cc(-c1ccc(O)cc1C)c1c2CCC1` (centres unmarked) [Example 50, 4-allyl-6-(4-hydroxy-2-methylphenyl)-2,2,4-trimethyl-2,3,4,7,8,9-hexahydro-1H-cyclopenta[h]quinolin-3-one], the Ki under setting [1] is over 1250 nM.
With `C=CCC1(C)C(=O)C(C)(C)Nc2c1cc(-c1c(C)noc1C)c1c2CCC1` (centres unmarked) [Example 51, 4-allyl-6-(3,5-dimethylisoxazol-4-yl)-2,2,4-trimethyl-2,3,4,7,8,9-hexahydro-1H-cyclopenta[h]quinolin-3-one], under setting [1], the Ki is over 1250 nM.
For `C=CCC1(C)C(=O)C(C)(C)Nc2c1cc(-c1cccc3nccn13)c1c2CCC1` (centres unmarked) [Example 57, 4-allyl-6-(imidazo[1,2-a]pyridin-5-yl)-2,2,4-trimethyl-2,3,4,7,8,9-hexahydro-1H-cyclopenta[h]quinolin-3-one], under setting [1], the Ki is over 1250 nM.
As to `CCC1(C)C(=O)C(C)(C)Nc2c1cc(-c1cccc3nccn13)c1c2CCC1` (centres unmarked) [Example 58, 4-ethyl-6-(imidazo[1,2-s]pyridin-5-yl)-2,2,4-trimethyl-2,3,4,7,8,9-hexahydro-1H-cyclopenta[h]quinolin-3-one], the Ki under setting [1] worked out at 1010 nM.
On the same count and under the same terms, in the case of `CC#CCC1(C)C(=O)C(C)(C)Nc2c1cc(-c1cccc3nccn13)c1c2CCC1` (centres unmarked) [Example 63, 4-(2-butynyl)-6-(imidazo[1,2-a]pyridin-5-yl)-2,2,4-trimethyl-2,3,4,7,8,9-hexahydro-1H-cyclopenta[h]quinolin-3-one] it was over 1250 nM.
Regarding `Cc1noc(C)c1-c1cc2c(c3c1OCO3)NC(C)(C)C(=O)C2(C)C` [Example 69, 4-(3,5-dimethylisoxazol-4-yl)-6,6,8,8-tetramethyl-6,7,8,9-tetrahydro-[1,3]dioxolo[4,5-h]quinolin-7-one], under setting [1], the inhibitory constant (Ki) was over 1250 nM.
For `CC1(C)Nc2c(cc(-c3cccc4nccn34)c3c2OCO3)C(C)(C)C1=O` [Example 71, 4-(imidazo[1,2-a]pyridin-5-yl)-6,6,8,8-tetramethyl-6,7,8,9-tetrahydro-[1,3]dioxolo[4,5-h]quinolin-7-one], the Ki under setting [1] was over 1250 nM.
Still for that read-out and setting: the value for `CC1(C)Nc2c(cc(-c3cccc4ncccc34)c3c2OCO3)C(C)(C)C1=O` [Example 72, 6,6,8,8-tetramethyl-4-(quinolin-5-yl)-6,7,8,9-tetrahydro-[1,3]dioxolo[4,5-h]quinolin-7-one] was over 1250 nM.
Consider `C=CCC1(C)C(=O)C(C)(C)Nc2c1cc(-c1cccc3cc[nH]c13)c1c2OCO1` (centres unmarked) [Example 78, 6-allyl-4-(1H-indol-7-yl)-6,8,8-trimethyl-6,7,8,9-tetrahydro-[1,3]dioxolo[4,5-h]quinolin-7-one], for which the Ki is over 1250 nM.
For `CC1(C)Nc2c(cc(-c3cccc4nccn34)c3c2OC(F)(F)O3)C(C)(C)C1=O` [Example 82, 2,2-difluoro-4-(imidazo[1,2-a]pyridin-5-yl)-6,6,8,8-tetramethyl-6,7,8,9-tetrahydro-[1,3]dioxolo[4,5-h]quinolin-7-one], under setting [1], the Ki is over 1250 nM.
For `Cc1noc(C)c1-c1cc2c(c3c1OCC3)NC(C)(C)C(=O)C2(C)C` [Example 84, 6-(3,5-dimethylisoxazol-4-yl)-2,2,4,4-tetramethyl-1,2,3,4,8,9-hexahydro-furo[2,3-h]quinolin-3-one], the Ki under setting [1] was over 1250 nM.
Regarding `CC1(C)Nc2c(cc(-c3cccc4nccn34)c3c2CCO3)C(C)(C)C1=O` [Example 88, 6-(imidazo[1,2-a]pyridin-5-yl)-2,2,4,4-tetramethyl-1,2,3,4,8,9-hexahydro-furo[2,3-h]quinolin-3-one], under setting [1], the Ki is over 1250 nM.

The values are drawn from patent US8367695B2, “Condensed tetrahydroquinoline derivative and use thereof for medical purposes” (Mitsubishi Tanabe Pharma Corporation, priority 2007, dated 2013).
